# According to ChEMBL document CHEMBL1130576, “Design and synthesis of a macrocyclic E-Selectin antagonist” (Bioorg Med Chem Lett, 1997):
# Tests used:
# [1] = molecular target: T1, E-selectin (Homo sapiens) (UniProt P16581); test: Compound was evaluated for in vitro affinity towards Selectin E, activity expressed as IC50 relative to Sialyl lewisX
# T1 sequence (whole entry): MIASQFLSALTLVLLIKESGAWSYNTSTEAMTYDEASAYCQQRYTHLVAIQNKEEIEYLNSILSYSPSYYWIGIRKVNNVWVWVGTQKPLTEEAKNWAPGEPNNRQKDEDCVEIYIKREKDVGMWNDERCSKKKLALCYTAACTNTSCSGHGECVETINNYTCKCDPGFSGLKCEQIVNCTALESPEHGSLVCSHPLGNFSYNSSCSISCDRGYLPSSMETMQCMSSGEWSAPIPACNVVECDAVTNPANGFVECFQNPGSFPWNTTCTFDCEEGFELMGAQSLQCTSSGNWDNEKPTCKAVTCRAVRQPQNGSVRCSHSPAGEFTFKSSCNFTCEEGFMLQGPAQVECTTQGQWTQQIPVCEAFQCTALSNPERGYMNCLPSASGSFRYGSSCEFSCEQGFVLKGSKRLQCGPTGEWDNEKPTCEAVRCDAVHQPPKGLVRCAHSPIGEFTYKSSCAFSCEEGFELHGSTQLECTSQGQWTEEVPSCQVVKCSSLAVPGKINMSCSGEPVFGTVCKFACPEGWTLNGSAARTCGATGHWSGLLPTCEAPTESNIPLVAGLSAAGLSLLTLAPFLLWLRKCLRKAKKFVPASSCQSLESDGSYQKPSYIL
# [2] = molecular target: T1, E-selectin (Homo sapiens); test: Compound was evaluated for in vitro affinity towards Selectin E
RIC50 [1],RIC50 [2],Structure (SMILES)
2.8,,O=C1CC[C@@H]2O[C@@H](O[C@@H]3CCCC[C@H]3O[C@@H]3O[C@@H](CO)[C@H](O)[C@H](O[C@@H](Cc4ccccc4)C(=O)O)[C@H]3O1)[C@@H](O)[C@@H](O)[C@@H]2O
,1,COC(=O)CCCCCCCCO[C@@H]1O[C@@H](CO)[C@@H](O[C@@H]2O[C@@H](CO)[C@H](O)[C@H](O[C@]3(C(=O)O)C[C@@H](O)[C@@H](NC(C)=O)[C@H]([C@H](O)[C@H](O)CO)O3)[C@@H]2O)[C@H](O[C@@H]2O[C@@H](C)[C@@H](O)[C@H](O)[C@@H]2O)[C@@H]1NC(C)=O
0.39,,O=C(O)CC[C@@H]1O[C@@H](O[C@@H]2CCCC[C@H]2O[C@@H]2O[C@@H](CO)[C@H](O)[C@H](O[C@@H](Cc3ccccc3)C(=O)O)[C@@H]2O)[C@@H](O)[C@@H](O)[C@@H]1O
